According to ChEMBL document CHEMBL5365457, “Selective HDAC3 Inhibitors with Potent In Vivo Antitumor Efficacy against Triple-Negative Breast Cancer” (J Med Chem, 2023):
Calls of active or inactive are those of the source. The calls are words filed in the database; no cut-off is given here.

How the values were obtained:
MDA-MB-231 [1] = test: Cytotoxicity against human MDA-MB-231 cells assessed as inhibition of cell growth incubated for 72 hrs by MTT assay; type: functional, cell-based; details: MDA-MB-231, 72 h
MDA-MB-453 = test: Cytotoxicity against human MDA-MB-453 cells assessed as inhibition of cell growth incubated for 72 hrs by MTT assay; type: functional, cell-based; details: MDA-MB-453, 72 h
[2] = Cytotoxicity against human MCF-10A cells assessed as inhibition of cell growth incubated for 72 hrs by MTT assay; type: toxicity, cell-based
[3] = Half life in Wistar rat at 15 mg/kg, ip measured upto 24 hrs by HPLC analysis; type: ADME, organism-based; details: in vivo
[4] = Tmax in Wistar rat at 15 mg/kg, ip measured upto 24 hrs by HPLC analysis; type: ADME, organism-based; details: in vivo
[5] = Cmax in Wistar rat at 5 mg/kg, ip measured upto 24 hrs by HPLC analysis; type: ADME, organism-based; design: time < 24 hrs, dose 5 mg/kg, route ip; details: in vivo
[6] = AUC (0 to infinity) in Wistar rat at 5 mg/kg, ip measured upto 24 hrs by HPLC analysis; type: ADME, organism-based; design: dose 5 mg/kg, time < 24 hrs, route ip; details: in vivo
[7] = AUC (0 to infinity) in Wistar rat at 15 mg/kg, ip measured upto 24 hrs by HPLC analysis; type: ADME, organism-based; design: dose 15 mg/kg, time < 24 hrs, route ip; details: in vivo
[8] = Selectivity ratio of IC50 for cytotoxicity against human HEK293 cells assessed as inhibition of cell growth to IC50 for cytotoxicity against human MDA-MB-231 cells assessed as inhibition of cell growth; type: toxicity, cell-based; details: HEK293 cells versus MDA-MB-231 cells, read-out: Ratio IC50
[9] = Selectivity ratio of IC50 for cytotoxicity against human HCEC cells assessed as inhibition of cell growth to IC50 for cytotoxicity against human MDA-MB-231 cells assessed as inhibition of cell growth; type: toxicity, cell-based; details: HCEC cells versus MDA-MB-231 cells, read-out: Ratio IC50
[10] = Selectivity ratio of IC50 for cytotoxicity against human HCEC cells assessed as inhibition of cell growth to IC50 for cytotoxicity against human MDA-MB-453 cells assessed as inhibition of cell growth; type: toxicity, cell-based; details: HCEC cells versus MDA-MB-453 cells, read-out: Ratio IC50
4T1 [11] = test: Cell cycle arrest in mouse 4T1 cells assessed as accumulation of cells at G2/M phase at 110 nM incubated for 72 hrs by flow cytometry; type: functional
MDA-MB-231 [12] = test: Cytotoxicity against wild type human MDA-MB-231 cells assessed as reduction in cell viability incubated for 72 hrs in presence of oxaliplatin by MTT assay; type: functional, cell-based; details: MDA-MB-231, 72 h
[13] = Cytotoxicity against Oxaliplatin-resistant human MDA-MB-231 cell assessed as reduction in cell viability incubated for 72 hrs by MTT assay; type: functional, cell-based; details: Oxaliplatin-resistant MDA-MB-231 cell
[14] = Cytotoxicity against Oxaliplatin-resistant human MDA-MB-231 cell assessed as reduction in cell viability incubated for 72 hrs in presence of oxaliplatin by MTT assay; type: functional, cell-based; details: Oxaliplatin-resistant MDA-MB-231 cell
4T1 [15] = test: Antitumor activity against mouse 4T1 cells implanted in BALB/c mouse assessed as tumor growth inhibition at 5 mg/kg, ip measured on day 7; type: functional; details: 4T1, 168 h, time 7 day, read-out: TGI
4T1 [16] = test: Antitumor activity against mouse 4T1 cells implanted in BALB/c mouse assessed as tumor growth inhibition at 5 mg/kg, ip measured on day 14; type: functional; details: 4T1, 336 h, time 14 day, read-out: TGI
4T1 [17] = test: Antitumor activity against mouse 4T1 cells implanted in BALB/c mouse assessed as tumor growth inhibition at 15 mg/kg, ip measured on day 14; type: functional; details: 4T1, 336 h, time 14 day, read-out: TGI
4T1 [18] = test: Antitumor activity against mouse 4T1 cells implanted in BALB/c mouse assessed as tumor growth inhibition at 15 mg/kg, ip measured on day 21; type: functional; details: 4T1, 504 h, time 21 day, read-out: TGI
Mus musculus [19] = test: Induction of ROS generation in mouse implanted with mouse 4T1 cells at 15 mg/kg, ip administered for 21 days by DCFH-DA staining based microscopic analysis; type: functional, organism-based; details: time 21.0 day
Mus musculus [20] = test: Induction of ROS generation in mouse implanted with mouse 4T1 cells at 5 mg/kg, ip administered for 21 days by DCFH-DA staining based microscopic analysis; type: functional, organism-based; details: time 21.0 day
4T1 [21] = test: Antitumor activity against mouse 4T1 cells implanted in BALB/c mouse assessed as reduction in Ki-67 expression in tumor tissue at 5 to 15 mg/kg, ip measured for 21 days by fluorescence based microscopic analysis; type: functional, organism-based; details: dose 5-15 mg/kg, time 21.0 day
[22] = Toxicity in BALB/c mouse implanted with mouse 4T1 cells assessed as effect on cell shape in liver at 5 to 15 mg/kg, ip measured after 21 days by H and E staining based assay; type: organism-based; details: in vivo, 504 h, dose 5-15 mg/kg, time 21 day
[23] = Toxicity in BALB/c mouse implanted with mouse 4T1 cells assessed as effect on cell shape in spleen at 5 to 15 mg/kg, ip measured after 21 days by H and E staining based assay; type: organism-based; details: in vivo, 504 h, dose 5-15 mg/kg, time 21 day
[24] = Toxicity in BALB/c mouse implanted with mouse 4T1 cells assessed as effect on cell size in kidney at 5 to 15 mg/kg, ip measured after 21 days by H and E staining based assay; type: organism-based; details: in vivo, 504 h, dose 5-15 mg/kg, time 21 day
[25] = Toxicity in BALB/c mouse implanted with mouse 4T1 cells assessed as effect on cell size in spleen at 5 to 15 mg/kg, ip measured after 21 days by H and E staining based assay; type: organism-based; details: in vivo, 504 h, dose 5-15 mg/kg, time 21 day
[26] = Toxicity in BALB/c mouse implanted with mouse 4T1 cells assessed as kidney fibrosis at 5 to 15 mg/kg, ip measured after 21 days; type: organism-based; details: in vivo, 504 h, dose 5-15 mg/kg, time 21 day
[27] = Toxicity in BALB/c mouse implanted with mouse 4T1 cells assessed as neutrophilic infiltration in kidney at 5 to 15 mg/kg, ip measured after 21 days; type: organism-based; details: in vivo, 504 h, dose 5-15 mg/kg, time 21 day
[28] = Toxicity in BALB/c mouse implanted with mouse 4T1 cells assessed as neutrophilic infiltration in spleen at 5 to 15 mg/kg, ip measured after 21 days; type: organism-based; details: in vivo, 504 h, dose 5-15 mg/kg, time 21 day
4T1 [29] = test: Antitumor activity against mouse 4T1 cells implanted in BALB/c mouse assessed as increase in number of lung nodules at 15 mg/kg, ip measured for 7 days by fluorescence based assay; type: functional, organism-based; details: time 7.0 day
4T1 [30] = test: In-vivo inhibition of HDAC3 in ip dosed BALB/c mouse implanted with mouse 4T1 cells assessed as hyperacetylation of H4K12 level by Western blot analysis; type: functional, organism-based; details: dose 5-15 mg/kg
4T1 [31] = test: In-vivo inhibition of HDAC3 in BALB/c mouse implanted with mouse 4T1 cells assessed as increase in acetylation of tubulin level at 5 to 15 mg/kg, ip by Western blot analysis; type: functional, organism-based; details: dose 5-15 mg/kg
4T1 [32] = test: Antitumor activity against mouse 4T1 cells implanted in BALB/c mouse assessed as upregulation of caspase-7 level in tumor at 5 to 15 mg/kg, ip by Western blot analysis; type: functional, organism-based; details: dose 5-15 mg/kg
4T1 [33] = test: Antitumor activity against mouse 4T1 cells implanted in BALB/c mouse assessed as reduction in CD44 protein level in tumor at 5 to 15 mg/kg, ip by Western blot analysis; type: functional, organism-based; details: dose 5-15 mg/kg
4T1 [34] = test: Antitumor activity against mouse 4T1 cells implanted in BALB/c mouse assessed as reduction in EGFR protein level in tumor at 5 to 15 mg/kg, ip by Western blot analysis; type: functional, organism-based; details: dose 5-15 mg/kg

In the case of CCCNNC(=O)c1cnc(NCc2ccc(OC)cc2)cn1, the IC50 (MDA-MB-231 [1]) is reported as 740 nM, the IC50 (MDA-MB-453) is reported as 1720 nM and the IC50 at 72 h [2] is reported as 212000 nM. For the same compound, the half-life [3] was 7.2 h, the Tmax [4] was 2 h and the Cmax [5] was 1110 ng/mL. The AUC(0-inf) [6] was 4320 ng·h/mL, the AUC(0-inf) [7] was 20600 ng·h/mL and the selectivity ratio [8] was 286. For the same compound, the selectivity ratio [9] was 286, the selectivity ratio [10] was 286 and the Activity (4T1 [11]) was 38.8%. The IC50 (MDA-MB-231 [12]) was 403 nM, the IC50 [13] was 754 nM and the IC50 [14] was 447 nM. For the same compound, the inhibition in vivo at 5 mg/kg (4T1 [15]) was 76.2%, the inhibition in vivo at 5 mg/kg (4T1 [16]) was 91.2% and the inhibition in vivo at 15 mg/kg (4T1 [17]) was 97.3%. The inhibition in vivo at 15 mg/kg (4T1 [18]) was 97.9%, the Activity (Mus musculus [19]) was “Active” and the Activity (Mus musculus [20]) was “Active”. For the same compound, the Activity (4T1 [21]) was “Active”, the Activity [22] was “Non-Toxic” and the Activity [23] was “Non-Toxic”. For the same compound, the Activity [24] was “Non-Toxic”, the Activity [25] was “Non-Toxic” and the Activity [26] was “Non-Toxic”. The Activity [27] was “Non-Toxic”, the Activity [28] was “Non-Toxic” and the Activity (4T1 [29]) was “Active”. The inhibition (4T1 [30]) was “Dose-Dependent Effect”, the inhibition (4T1 [31]) was “Active” and the Activity (4T1 [32]) was “Active”. For the same compound, the Activity (4T1 [33]) was “Active” and the Activity (4T1 [34]) was “Active”.
